Where two headings read alike, the source gives them in different places.
Tests used:
RARγ receptors = biological target: T1, RARγ receptors (Homo sapiens, UniProt P13631); assay: GenBLAzer RAR gamma cell-based assay, agonist mode (AG) and positive allosteric modulator mode (PAM); settings: unit from horizontal axis of FIG. 1
T1 sequence (P13631 185-419 limits assumed): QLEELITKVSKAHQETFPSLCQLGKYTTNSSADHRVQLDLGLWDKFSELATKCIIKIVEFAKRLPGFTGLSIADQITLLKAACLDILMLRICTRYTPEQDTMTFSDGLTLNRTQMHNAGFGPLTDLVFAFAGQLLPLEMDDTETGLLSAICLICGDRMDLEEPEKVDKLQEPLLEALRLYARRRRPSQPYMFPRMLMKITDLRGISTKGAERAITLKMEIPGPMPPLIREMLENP
Procedure: Test Method 2 RARγ Receptors in Both Agonist Mode (AG) and Positive Allosteric Modulator Mode (PAM)
Dose response activity on RARγ receptors in both agonist mode (AG) and Positive allosteric modulator mode (PAM) was tested using Invitrogen's GenBLAzer® RAR gamma cell-based assay according to the manufacturer's instructions.

[1] = tested on: HBEGF (heparin-binding epidermal growth factor-like growth factor) gene expression; assay: HBEGF gene expression in human skin explants (qPCR); assay type: cell-based; settings: 48 h; for HB-EGF gene expression in skin explant: topical; for HBEGF gene expression in human skin explants (in words): applied topically, 10 μM and 100 μM
Procedure: (§1) Test Method 3 CRABP2 (Cellular Retinoic Acid Binding Protein-II) and HBEGF (Heparin-Binding Epidermal Growth Factor-Like Growth Factor) Gene Expression in Human Explants
(§2) Human skin explants were prepared as described by Bellemère et al. (Journal of Investigative Dermatology (2008) 128, 542-548), treated with 4 μl of compound (1) or (2) (Cpd (1) and Cpd (2) in the figure) at 2 concentrations: 10 μM and 100 μM and incubated at 37° C., 5% CO2 in 6-well plates containing 1.5 ml of medium during 48 h. After 48 h, the epidermis of each explant is detached from the dermis and (i) lysed for RNA extraction with Qiagen Rneasy kit, (ii) reverse transcripted using the thermocycler iCycler from Biorad and Applied Biosystems kit and (iii) analyzed for gene expression by performing a qPCR using the CFX96 Biorad Q-PCR system and Power Sybergreen PCR master mix from Applied Biosystems. All steps were performed according to the manufacturer's instructions. […] Compounds (1) and (2), used at doses of 10 μM and 100 μM, elicit retinol-like bioactivity, as shown by the induction of CRABP2 and HB-EGF gene expression.

[2] = tested on: interleukin 8 (IL-8 mRNA); assay: Gene expression of inflammatory mediator interleukin 8 in skin explant; assay type: cell-based, human; settings: 48 h; for IL-8 mRNA expression in skin explant: topical; for IL-8 mRNA expression as compared to Neutrogena RWR (in words): skin explant
Procedure: as §2
Test Method 4 Gene Expression of Inflammatory Mediator Interleukin 8 (IL-8 mRNA)
The skin explant used in Test Method 3 was used to measure the expression of the gen for IL-8 mRNA.
As depicted in the Figure below, IL-8 mRNA expression is lower in explant treated with both compounds (1) and (2) as compared to Neutrogena RWR.

[3] = biological target: T2, Human Retinoic Acid Receptor Gamma (Homo sapiens, UniProt P13631); assay: RARγ transactivation cellular assay (luciferase reporter, Indigo Biosciences #IB02001); assay type: cell-based; settings: for RARγ transactivation (in words): 0.1 μM, 1 μM and 10 μM; for RARγ receptor transactivation values (ratio: RLU of tested material/RLU of control): 24 h incubation
T2 sequence (P13631 1-454): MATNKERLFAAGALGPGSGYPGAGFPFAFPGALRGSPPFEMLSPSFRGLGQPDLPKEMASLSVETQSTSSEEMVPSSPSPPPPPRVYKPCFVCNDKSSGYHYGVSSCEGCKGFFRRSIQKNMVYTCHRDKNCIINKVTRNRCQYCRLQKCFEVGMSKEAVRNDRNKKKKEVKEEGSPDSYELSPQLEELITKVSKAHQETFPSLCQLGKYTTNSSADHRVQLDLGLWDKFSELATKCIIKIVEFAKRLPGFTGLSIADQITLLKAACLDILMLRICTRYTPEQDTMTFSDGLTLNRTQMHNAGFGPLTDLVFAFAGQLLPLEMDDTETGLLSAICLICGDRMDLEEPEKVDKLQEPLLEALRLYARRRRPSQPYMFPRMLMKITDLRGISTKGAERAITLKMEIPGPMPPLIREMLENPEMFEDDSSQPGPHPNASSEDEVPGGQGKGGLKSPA
Procedure: Test Method 1 RARγ Transactivation Cellular Assay
This assay system uses non-human cells engineered to provide constitutive, high-level expression of the Human Retinoic Acid Receptor Gamma, a ligand-dependent transcription factor. Cells include the luciferase reporter gene functionally linked to a RARγ-responsive promoter. Thus, quantifying changes in luciferase expression in the treated reporter cells provides a sensitive measure of the changes in RARγ activity.
Engineered cells are seeded in 96-well plates and treated with the assessed compounds at 3 concentrations: 0.1 μM, 1 μM and 10 μM. After 24 h incubation, treatment media are discarded and Luciferase detection reagent is added. Light emission from each assay well is quantified using a plate-reading luminometer.

[4] = tested on: CRABP2 (cellular retinoic acid binding protein-II) gene expression; assay: CRABP2 gene expression in human skin explants (qPCR); assay type: cell-based; settings: 48 h; for CRABP2 mRNA expression in skin explant: topical; for CRABP2 gene expression in human skin explants (in words): applied topically, 10 μM and 100 μM
Procedure: as §1, §2

[5] = agonist mode, read-out: average EC50, dose response activity on RARγ in agonist mode
[6] = positive allosteric modulator mode, read-out: average EC50, dose response activity on RARγ in positive allosteric modulator mode
[7] = 10^−4M in vehicle (PG70/EtOH30)
[8] = 10^−5M in vehicle (PG70/EtOH30)

Compound | EC50 (RARγ receptors; [5]) | EC50 (RARγ receptors; [6]) | HB-EGF gene expression in skin explant [1, 7] | HB-EGF gene expression in skin explant [1, 8] | HBEGF gene expression in human skin explants (in words) [1] | IL-8 mRNA expression in skin explant [2, 7] | IL-8 mRNA expression in skin explant [2, 8] | IL-8 mRNA expression as compared to Neutrogena RWR (in words) [2] | RARγ transactivation (in words) [3] | RARγ receptor transactivation values (ratio: RLU of tested material/RLU of control) ([3]; concentration 0.1 μM) | RARγ receptor transactivation values (ratio: RLU of tested material/RLU of control) ([3]; concentration 1 μM) | RARγ receptor transactivation values (ratio: RLU of tested material/RLU of control) ([3]; concentration 10 μM) | CRABP2 mRNA expression in skin explant [4, 7] | CRABP2 mRNA expression in skin explant [4, 8] | CRABP2 gene expression in human skin explants (in words) [4]
CC(/C=C/C=C(\C)c1ccc2c(c1)C(C)(C)C(C)(C)C2(C)C)=C\C(=O)O [Compound 1, (2E,4E,6E)-7-(1,1,2,2,3,3-hexamethyl-2,3-dihydro-1H-inden-5-yl)-3-methylocta-2,4,6-trienoic acid] | 0.0831 nM | 0.0301 nM | 513% | 218% | induced | 410 % control | 422 % control | lower | showed RARγ transactivation | 10.6988 | 8.4578 | 6.506 | 496 % control | 256 % control | induced
C=C(c1ccc(C(=O)O)cc1)c1ccc2c(c1)C(C)(C)C(C)(C)C2(C)C [Compound 2, 4-(1-(1,1,2,2,3,3-hexamethyl-2,3-dihydro-1H-inden-5-yl)vinyl)benzoic acid] | 7.1 ± 0.7 nM | 6.7 ± 2.7 nM | 358% | 173% | induced | 690 % control | 334 % control | lower | showed RARγ transactivation | 5.5663 | 3.253 | 6.7229 | 340 % control | 191 % control | induced

— patent US10980725B2, “Cosmetic compositions and method of treating the skin” (Johnson & Johnson Consumer Inc., priority 2017, dated 2021)
